In patent publication US5118697A, “Cyclic beta-ketoamide ACAT inhibitors” (Warner-Lambert Company, priority 1991, dated 1992):

Each compound was assayed against T1, acyl-CoA: cholesterol acyltransferase (ACAT) (Oryctolagus cuniculus, UniProt G1SFD9) (assay: in vitro ACAT inhibition test: radiolabeled cholesterol oleate formed from radiolabeled oleic acid in rabbit intestinal microsomes).
T1 construct: tissue preparation containing rabbit intestinal microsomes; from tissue; host or cells: rabbit intestinal microsomes
T1 sequence (G1SFD9 1-524): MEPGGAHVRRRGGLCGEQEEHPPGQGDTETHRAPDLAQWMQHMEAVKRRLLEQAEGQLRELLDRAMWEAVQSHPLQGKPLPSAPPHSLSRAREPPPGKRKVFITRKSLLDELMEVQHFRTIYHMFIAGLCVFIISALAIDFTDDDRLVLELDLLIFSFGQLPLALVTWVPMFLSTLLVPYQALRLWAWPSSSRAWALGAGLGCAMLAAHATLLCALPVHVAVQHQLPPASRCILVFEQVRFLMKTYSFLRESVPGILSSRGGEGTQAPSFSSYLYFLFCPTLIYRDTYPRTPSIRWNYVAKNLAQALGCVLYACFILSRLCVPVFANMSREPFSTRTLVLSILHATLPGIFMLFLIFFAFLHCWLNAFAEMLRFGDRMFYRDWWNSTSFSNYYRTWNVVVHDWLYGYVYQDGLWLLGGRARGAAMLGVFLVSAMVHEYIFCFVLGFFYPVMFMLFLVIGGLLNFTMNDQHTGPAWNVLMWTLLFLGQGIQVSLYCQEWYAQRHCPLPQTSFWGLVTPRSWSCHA
Format: biochemical
Description: As shown by the data presented below in Table 1, the compounds of the present invention are potent inhibitors of the enzyme acyl-CoA: cholesterol acyltransferase (ACAT), and are thus effective in inhibiting the esterification and transport of cholesterol across the intestinal cell wall. The compounds of the present invention are thus useful in pharmaceutical formulations for the treatment of hypercholesterolemia or atherosclerosis.
The ability of representative compounds of the present invention to inhibit ACAT was measured using an in vitro test more fully described in F. J. Field and R. G. Salone, Biochemica et Biophysica 712:557-570 (1982). The test assesses the ability of a test compound to inhibit the acylation of cholesterol by oleic acid by measuring the amount of radiolabeled cholesterol oleate formed from radiolabeled oleic acid in a tissue preparation containing rabbit intestinal microsomes.

Row | SMILES | IC50
1 | CC(C)c1cccc(C(C)C)c1NC(=O)C1CCC(c2ccccc2)(c2ccccn2)C1=O (stereo not drawn) [Example 1] | > 1000 nM
2 | CC(C)c1cccc(C(C)C)c1NC(=O)C1CCCC(c2ccccc2)(c2ccccn2)C1=O (stereo not drawn) [Example 2, N-[2,6 bis(1-methylethyl)phenyl]-2-oxo-3-phenyl-3-(2-pyridinyl)cyclohexanecarboxamide] | 1000 nM
3 | CC(C)c1cccc(C(C)C)c1NC(=O)C1CCCC(Cc2c(CCN(C)C)n(C)c3ccccc23)(c2ccccc2)C1=O (stereo not drawn) [Example 3, N-[2,6 bis(1-methylethyl)phenyl-3-[2-[2-(dimethylamino)ethyl]-1-methyl-1H-indol-3-yl]methyl]-2-oxo-3-phenylcyclohexanecarboxamide] | > 1000 nM
4 | CC(C)c1cccc(C(C)C)c1NC(=O)C1CCCC(Cc2ccccn2)(c2ccccc2)C1=O (stereo not drawn) [Example 4, N-[2,6-bis(1 methylethyl)phenyl]-2-oxo-3-phenyl-3-(2-pyridinylmethyl)cyclohexanecarboxamide] | 259 nM
5 | CC(C)c1cccc(C(C)C)c1NC(=O)C1CCCC(Cc2ccccn2)(Cc2ccccn2)C1=O (stereo not drawn) [Example 5, N-[2,6-bis(1-methylethyl)phenyl]-2-oxo-3,3-bis(2-pyridinylmethyl)cyclohexanecarboxamide] | 940 nM
6 | CC(C)c1cccc(C(C)C)c1NC(=O)C1CCCC(CCCCCOc2ccccc2)(c2ccccc2)C1=O (stereo not drawn) [Example 6, N-[2,6-bis (1-methylethyl)phenyl]-2-oxo-3-(5-phenoxypentyl)-3-phenylcyclohexanecarboxamide] | 72 nM
